Reference: patent publication US12503436B2, “Compounds and compositions for treating conditions associated with STING activity” (NOVARTIS PHARMA AG, priority 2021, dated 2025)

Biological target: STING (Homo sapiens, UniProt Q86WV6, G230A/H232R/R293Q/R71H)
Test: STING reporter assay in THP1-Dual KO-IFNAR2 cells (2′3′cGAMP stimulation, luciferase reporter)
Assay type: cell-based
Conditions: 15 μM 2′3′cGAMP stimulation, 24 h, read-out: Pharmaron, THP1_IFNAR2 STING 24 h Luci Normalized: GeoMean EC50
Method in brief: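 EC50 from secreted luciferase (QUANTI-Luc Plus luminescence of supernatant) after 24 h at 37 °C, 5% CO2. Cells: THP1-Dual KO-IFNAR2, treated with compound (0.0017-100 μM final) plus lipofected 2′3′cGAMP at 15 μM final.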

Chain of STING (Q86WV6 whole entry R71H/G230A/H232R/R293Q): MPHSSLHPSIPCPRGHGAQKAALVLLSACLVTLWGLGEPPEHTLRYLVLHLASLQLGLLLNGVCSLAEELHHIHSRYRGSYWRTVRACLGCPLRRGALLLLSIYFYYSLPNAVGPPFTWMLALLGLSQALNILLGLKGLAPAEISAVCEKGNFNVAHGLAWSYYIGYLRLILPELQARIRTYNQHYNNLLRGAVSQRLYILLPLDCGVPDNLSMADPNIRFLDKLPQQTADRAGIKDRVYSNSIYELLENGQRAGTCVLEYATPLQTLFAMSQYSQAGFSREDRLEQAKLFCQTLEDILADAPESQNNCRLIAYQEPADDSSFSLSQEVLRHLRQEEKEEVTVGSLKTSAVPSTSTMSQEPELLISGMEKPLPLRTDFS

Row | SMILES | EC50 [µM]
1 | CC(=O)Nc1c[nH]c2ccc(CC(Cc3ccc(C(F)(F)F)cc3)NC(C)=O)cc12 (stereo not shown) [Compound 516, N-(1-(3-acetamido-1H-indol-5-yl)-3-(4-(trifluoromethyl)phenyl)propan-2-yl)acetamide] | 5 to 100
2 | CC(=O)Nc1c[nH]c2ccc(CC(N)Cc3ccc(C(F)(F)F)cc3)cc12 (stereo not shown) [Compound 517, N-(5-(2-amino-3-(4-(trifluoromethyl)phenyl)propyl)-1H-indol-3-yl)acetamide] | 5 to 100
3 | O=C(Nc1c[nH]c2ccc(O[C@H]3C[C@H](c4ccc(C(F)(F)F)cc4)C3)cc12)C1COC1 [Compound 518, N-(5-(trans-3-(4-(trifluoromethyl)phenyl)cyclobutoxy)-1H-indol-3-yl)oxetane-3-carboxamide] | 0.2 to 1
4 | CC(C)(O)CC(=O)Nc1c[nH]c2ccc(OCCc3ccc(C(F)(F)F)cc3)cc12 [Compound 519, 3-hydroxy-3-methyl-N-(5-(4-(trifluoromethyl)phenethoxy)-1H-indol-3-yl)butanamide] | 0.04 to 0.2
5 | COCCCC(=O)Nc1c[nH]c2ccc(OCC[C@@H]3C[C@@H]4CN(CC(F)(F)F)C[C@@H]4C3)cc12 [Compound 520, 4-methoxy-N-(5-(2-((3aR,5r,6aS)-2-(2,2,2-trifluoroethyl)octahydrocyclopenta[c]pyrrol-5-yl)ethoxy)-1H-indol-3-yl)butanamide] | 0.04 to 0.2
6 | CC[C@H](O)C(=O)Nc1c[nH]c2ccc(OCC[C@@H]3C[C@@H]4CN(CC(F)(F)F)C[C@@H]4C3)cc12 [Compound 521, (S)-2-hydroxy-N-(5-(2-((3aR,5r,6aS)-2-(2,2,2-trifluoroethyl)octahydrocyclopenta[c]pyrrol-5-yl)ethoxy)-1H-indol-3-yl)butanamide] | 0.2 to 1
7 | CC[C@@H](O)C(=O)Nc1c[nH]c2ccc(OCC[C@@H]3C[C@@H]4CN(CC(F)(F)F)C[C@@H]4C3)cc12 [Compound 522, (R)-2-hydroxy-N-(5-(2-((3aR,5r,6aS)-2-(2,2,2-trifluoroethyl)octahydrocyclopenta[c]pyrrol-5-yl)ethoxy)-1H-indol-3-yl)butanamide] | 0.04 to 0.2
8 | CC(C)(O)CC(=O)Nc1c[nH]c2ccc(OCC[C@@H]3C[C@@H]4CN(CC(F)(F)F)C[C@@H]4C3)cc12 [Compound 523, 3-hydroxy-3-methyl-N-(5-(2-((3aR,5r,6aS)-2-(2,2,2-trifluoroethyl)octahydrocyclopenta[c]pyrrol-5-yl)ethoxy)-1H-indol-3-yl)butanamide] | 0.2 to 1
9 | CC1OC(C)C1C(=O)Nc1c[nH]c2ccc(OCCc3ccc(C(F)(F)F)cc3)cc12 (stereo not shown) [Compound 525, 2,4-dimethyl-N-(5-(4-(trifluoromethyl)phenethoxy)-1H-indol-3-yl)oxetane-3-carboxamide] | 0.2 to 1
10 | CC(=O)Nc1c[nH]c2ccc(CCOc3ccc4ncccc4c3)cc12 [Compound 526, N-(5-(2-(quinolin-6-yloxy)ethyl)-1H-indol-3-yl)acetamide] | 5 to 100
11 | COC(=O)C(Cc1ccc(C(F)(F)F)cc1)Cc1ccc2[nH]cc(NC(C)=O)c2c1 (stereo not shown) [Compound 527, methyl 3-(3-acetamido-1H-indol-5-yl)-2-(4-(trifluoromethyl)benzyl)propanoate] | 1 to 5
12 | CC1(C(=O)Nc2c[nH]c3ccc(OCc4ccc(C(F)(F)F)cc4)cc23)CCNCC1 [Compound 528, 4-methyl-N-(5-((4-(trifluoromethyl)benzyl)oxy)-1H-indol-3-yl)piperidine-4-carboxamide] | 5 to 100
13 | CC1(C(=O)Nc2c[nH]c3ccc(O[C@H]4C[C@@H](c5ccc(C(F)(F)F)cc5)C4)cc23)CCNCC1 [Compound 529, 4-methyl-N-(5-(cis-3-(4-(trifluoromethyl)phenyl)cyclobutoxy)-1H-indol-3-yl)piperidine-4-carboxamide] | 5 to 100
14 | C[C@]1(C(=O)Nc2c[nH]c3ccc(OCCc4ccc(C(F)(F)F)cc4)cc23)C[C@H](CO)C1 [Compound 530, trans-3-(hydroxymethyl)-1-methyl-N-(5-(4-(trifluoromethyl)phenethoxy)-1H-indol-3-yl)cyclobutane-1-carboxamide] | 0.04 to 0.2
15 | C[C@]1(C(=O)Nc2c[nH]c3ccc(OCCc4ccc(C(F)(F)F)cc4)cc23)C[C@@H](CO)C1 [Compound 531, cis-3-(hydroxymethyl)-1-methyl-N-(5-(4-(trifluoromethyl)phenethoxy)-1H-indol-3-yl)cyclobutane-1-carboxamide] | 0.04 to 0.2
16 | CC(=O)Nc1c[nH]c2ccc(CC(Cc3ccc(C(F)(F)F)cc3)C(=O)O)cc12 (stereo not shown) [Compound 532, 3-(3-acetamido-1H-indol-5-yl)-2-(4-(trifluoromethyl)benzyl)propanoic acid] | 5 to 100
17 | O=C(Nc1c[nH]c2ccc(OCCc3ccc(C(F)(F)F)cc3)cc12)[C@H]1C[C@@H](CO)C1 [Compound 533, cis-3-(hydroxymethyl)-N-(5-(4-(trifluoromethyl)phenethoxy)-1H-indol-3-yl)cyclobutane-1-carboxamide] | 0.04 to 0.2
18 | O=C(Nc1c[nH]c2ccc(OCCc3ccc(C(F)(F)F)cc3)cc12)[C@H]1C[C@H](CO)C1 [Compound 534, trans-3-(hydroxymethyl)-N-(5-(4-(trifluoromethyl)phenethoxy)-1H-indol-3-yl)cyclobutane-1-carboxamide] | 0.04 to 0.2
19 | CC(=O)Nc1c[nH]c2ccc(CCOc3cccc(C(C)N(C)C)c3)cc12 (stereo not shown) [Compound 536, N-(5-(2-(3-(1-(dimethylamino)ethyl)phenoxy)ethyl)-1H-indol-3-yl)acetamide] | 5 to 100
20 | O=C(Nc1c[nH]c2ccc(O[C@H]3C[C@@H](c4ccc(C(F)(F)F)cc4)C3)cc12)C1CNC1 [Compound 537, N-(5-(cis-3-(4-(trifluoromethyl)phenyl)cyclobutoxy)-1H-indol-3-yl)azetidine-3-carboxamide] | 5 to 100
21 | CC(=O)Nc1c[nH]c2ccc(C(C)C[C@@H]3C[C@@H]4CN(CC(F)(F)F)C[C@@H]4C3)cc12 (stereo partly drawn) [Compound 538, N-(5-(1-((3aR,5r,6aS)-2-(2,2,2-trifluoroethyl)octahydrocyclopenta[c]pyrrol-5-yl)propan-2-yl)-1H-indol-3-yl)acetamide] | 1 to 5
22 | CC(=O)Nc1c[nH]c2ccc(CCC[C@@H]3C[C@@H]4CN(CC(F)(F)F)C[C@@H]4C3)cc12 [Compound 539, N-(5-(3-((3aR,5r,6aS)-2-(2,2,2-trifluoroethyl)octahydrocyclopenta[c]pyrrol-5-yl)propyl)-1H-indol-3-yl)acetamide] | 1 to 5
23 | CC1(C(=O)Nc2c[nH]c3ccc(CC(O)Cc4ccc(C(F)(F)F)cn4)cc23)CC1 (stereo not shown) [Compound 540, N-(5-(2-hydroxy-3-(5-(trifluoromethyl)pyridin-2-yl)propyl)-1H-indol-3-yl)-1-methylcyclopropane-1-carboxamide] | 1 to 5
24 | CC(=O)Nc1c[nH]c2ccc(CCOc3cccnc3C(F)(F)F)cc12 [Compound 541, N-(5-(2-((2-(trifluoromethyl)pyridin-3-yl)oxy)ethyl)-1H-indol-3-yl)acetamide] | 5 to 100
25 | CC1(C(=O)Nc2c[nH]c3ccc(OC[C@H]4C[C@@H]5CN(CC(F)(F)F)C[C@@H]5C4)cc23)COC1 [Compound 542, 3-methyl-N-(5-(((3aR,5s,6aS)-2-(2,2,2-trifluoroethyl)octahydrocyclopenta[c]pyrrol-5-yl)methoxy)-1H-indol-3-yl)oxetane-3-carboxamide] | 0.2 to 1
